Patent publication US4452809A, “Trans-4-(2-chlorophenoxy)-1-ethyl-3-pyrrolidinol and anti-depressant use thereof” (A. H. Robins Company, Inc., priority 1983, dated 1984)
Structures can show the parent of a compound that is named as a salt.

What was measured:
[1] = system: depressant effects induced by tetrabenazine; test: Antitetrabenazine test in mice (blocking of tetrabenazine-induced depressant effects); format: in vivo; details: Mus musculus, ip, compound intraperitoneally, tetrabenazine intravenously
Text: Compounds preferred for their antidepressant activity have the formula: [drawing 4] Illustrative of the antidepressant activity of compounds of Formula Ia are the effective dosages determined by the foregoing anti-tetrabenazine test.

[2] = system: cardiac arrhythmia; test: Counteracting of ouabain-induced cardiac arrhythmia in anesthetized dogs; format: in vivo, adult mongrel dogs
Method: The procedure is carried out under barbiturate anesthesia using adult mongrel dogs of either sex weighing from 8 to 14 kg. A Grass Model 7 polygraph was used for recording femoral arterial blood pressure (Statham P23AC Transducer) and the electrocardiogram (Grass 7P4 Preamplifier). Ouabian was given intravenously in an initial dose of 40γ/kg in a second dose of 20γ/kg, given 30 minutes after the first dose, and in subsequent doses of 10γ/kg which were repeated at 15 minute intervals as required for producing cardiac arrhythmias that persisted for at least 15 minutes. When the arrhythmias were established the test compounds were administered by infusion (Harvard Model 942 Infusion Pump) into a femoral vein at a rate of 1 mg/kg/min. Concentrations of compounds were adjusted according to the weight of the dog to allow a volume infusion of 1 ml/min. Compounds that are considered to be active as antiarrhythmic agents cause reversion to sinus rhythm which is maintained for at least 60 minutes.

| SMILES | ED50 [1] | minimal effective dose ([2]; Canis lupus familiaris, iv, 1 h, barbiturate anesthesia, ouabain arrhythmia, infusion into femoral vein 1 mg/kg/min, reversion to sinus rhythm maintained at least 60 minutes, read-out: antiarrhythmic activity, minimum effective dose) | antiarrhythmic activity (in words) ([2]; ouabain-induced arrhythmia) |
| --- | --- | --- | --- |
| CN1C[C@@H](O)[C@H](Oc2ccccc2)C1 (relative stereo) [Example 3, Trans-1-methyl-4-phenoxy-3-pyrrolidinol] | 3.7 mg/kg | – | – |
| CCN1C[C@@H](O)[C@H](Oc2ccccc2)C1 (relative stereo) [Example 46, Trans-1-ethyl-4-phenoxy-3-pyrrolidinol Oxalate Hydrate (4:1)] | 3.5 mg/kg | – | – |
| CCN1C[C@@H](O)[C@H](Oc2ccccc2Cl)C1 (relative stereo) [Example 48, Trans-4-(2-chlorophenoxy)-1-ethyl-3-pyrrolidinol Hydrochloride] | 2.8 mg/kg | – | – |
| CCN1C[C@@H](O)[C@H](Oc2c(Cl)cccc2Cl)C1 (relative stereo) [Example 49, Trans-4-(2,6-dichlorophenoxy)-1-ethyl-3-pyrrolidinol Hydrochloride] | 4.8 mg/kg | – | – |
| CCN1C[C@@H](O)[C@H](Oc2cccc3ccccc23)C1 (relative stereo) [Example 55, Trans-1-ethyl-4-(1-naphthalenyloxy)-3-pyrrolidinol Hydrochloride] | – | 10.7 mg/kg | exceptional antharrhythmic activity |
